In PubChem BioAssay (NCI) one finds GI50 and TGI data, which are given here for 13 compounds.

Holding throughout (test): inhibition of tumour cell growth, NCI panel, 48 h
In experiment [1] the test system is A498 renal.
Experiment [2] relates to HCT-15 colon.
Experiment [3] concerns IGROV1 ovarian.
Experiment [4] concerns M14 melanoma.
In experiment [5] the test system is OVCAR-3 ovarian.
Experiment [6] deals with SF-295 CNS.
The subject of experiment [7] is SK-MEL-2 melanoma.
The test system of experiment [8] is SNB-75 CNS.
For experiment [9], the system named is SR leukemia.
Experiment [10] has as its system U251 CNS.

Where “and” joins values, the source holds several entries; their conditions need not be identical. Equal entries are not always repeated.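 In this assay, cells in 96-well plates receive the compound at five concentrations for 48 hours. Endpoints are linearly interpolated between the surrounding concentrations. GI50: concentration for 50% inhibition of growth. TGI marks complete inhibition of growth.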

Consider `Cc1ccc(-c2nc(N3CCCNCC3)c3oc(-c4ccccc4)nc3n2)cc1`, for which the GI50 in experiment [1] was 1.66 µM; in [2] it was 1.4 µM; in [3], 1.67 µM; in experiment [4], 1.76 µM; in experiment [5] it was 1.83 µM; in [6], 1.93 µM. Further, the GI50 was 2.03 µM in [7], 1.41 µM in experiment [8], 0.239 µM in [9] and 1.78 µM in [10]. Further, the TGI in [1] was 3.16 µM; in experiment [2], 2.77 µM; in experiment [3], 3.24 µM; in experiment [4], 3.29 µM; in [5], 3.38 µM; in experiment [6], 3.43 µM. Also, the TGI came out at 3.77 µM in [7], 2.73 µM in [8], 0.624 µM in experiment [9] and 3.17 µM in experiment [10].

For the compound `COc1cnc2c(c1)C(=O)c1c-2n(CCCNC(C)C)c(=O)c2cc(F)ccc12`, the GI50 was 0.199 µM in experiment [1]; 0.163 µM in experiment [2]; 0.206 µM in experiment [3]; 0.23 µM in experiment [4]; 0.19 µM in experiment [5]; 0.0943 µM in [6]. Also, the GI50 in experiment [7] was 0.51 µM; in experiment [8], 0.219 µM; in [9], 0.0758 µM; in experiment [10] it was 0.0788 µM. Also, the TGI in experiment [1] was 0.811 µM; in experiment [2], 1.32 µM; in experiment [3] it was 1.92 µM; in experiment [4], 1.3 µM; in experiment [5], 1.03 µM; in experiment [6], 0.549 µM. The TGI in [7] came to 1.92 µM; in experiment [8], 1.39 µM; in [9], 0.839 µM; in experiment [10], 0.397 µM.

Take `COc1cc(OC)c(NC(=O)c2cc3ccccc3cc2O)cc1Cl`: the GI50 was 2.15 µM in experiment [1]; 3.38 µM in [2]; 2.03 µM in experiment [3]; 3.03 µM in [4]; 2.02 µM in experiment [5]; 2.8 µM in experiment [6]. For the same compound, the GI50 in experiment [7] was 2.25 µM; in experiment [8], 1.59 µM; in [9] it was 5.25 µM; in experiment [10], 3.22 µM. Also, the TGI turned out to be 5.57 µM in [1]; 19.4 µM in experiment [2]; 11.2 µM in experiment [3]; 13.1 µM in experiment [4]; 4.74 µM in experiment [5]; 9.16 µM in experiment [6]. In addition, the TGI in experiment [7] is 6.14 µM; in experiment [8], 15 µM; in experiment [9], 91.5 µM; in experiment [10], 10.5 µM.

On to `CC1=C([Te]c2ccc(O)cc2)C(=O)c2ccccc2C1=O`, for which the GI50 in experiment [1] is 1.36 µM; in experiment [2], 1.01 µM; in experiment [3], 1.08 µM; in [4], 1.88 µM; in experiment [5], 1.44 µM; in experiment [6], 0.348 µM. Further, the GI50 in [7] is 2.78 µM; in experiment [8] it was 1.31 µM; in experiment [9], 0.461 µM; in experiment [10], 1.31 µM. For the same compound, the TGI in experiment [1] is 3.01 µM; in experiment [2], 4.31 µM; in experiment [3], 4.91 µM; in experiment [4] it was 5.05 µM; in experiment [5], 2.79 µM; in [6], 1.98 µM. In addition, the TGI in experiment [7] was 8.15 µM; in [8], 9.02 µM; in experiment [9], 2.67 µM; in experiment [10], 7.28 µM.

Consider `CNC(=O)c1cccc2c(Nc3ccc(NS(C)(=O)=O)cc3OC)c3cccc(C)c3nc12`, for which the TGI in experiment [1] is 1.15 µM; in experiment [2], 2.34 µM; in experiment [3] it was 13.2 µM; in [4] it was 2.63 µM; in experiment [5] it was 5.02 µM; in experiment [6], 0.555 µM. Besides, the TGI was determined as 6.37 µM in experiment [7], 1.34 µM in [8], 0.365 µM in experiment [9] and 0.719 µM in [10].

As to `COc1cc(-c2nn(-c3cccc(NC(=O)c4ccc(N5CCOCC5)c(C(F)(F)F)c4)c3)cc2-c2ccncc2)ccc1Cl`, the GI50 in [1] was 0.103 µM; in [2] it was 0.226 µM; in experiment [3], 0.405 µM; in experiment [4], 0.346 µM; in experiment [5], 0.147 µM; in experiment [6], 0.15 µM. The GI50 was 0.21 µM in experiment [7], 0.0818 µM in experiment [8], 0.0369 µM in experiment [9] and 0.36 µM in experiment [10]. Moreover, the TGI was 0.765 µM in experiment [1]; above 100 µM in [2]; 9.81 µM in experiment [3]; 13.8 µM in experiment [4]; 1.19 µM in experiment [5]; 1.15 µM in experiment [6]. Also, the TGI in experiment [7] was 2.46 µM; in experiment [8] it was 0.572 µM; in [9], above 100 µM; in experiment [10], 4.32 µM.

On to `C[C@H]1[C@H]2[C@H]3CC[C@@H]4[C@@]5(C)C/C(=C/c6cccnc6)C(=O)C(C)(C)[C@@H]5CC[C@@]4(C)[C@]3(C)CC[C@]23CO[C@]1(C)[C@@H](C(=O)/C=C\c1cccnc1)C3`, for which the GI50 in experiment [1] was 0.661 µM; in experiment [2], 0.982 µM; in experiment [3], 0.975 µM; in experiment [4], 1.57 µM; in experiment [5] it was 0.886 µM; in [6], 1.38 µM. Also, the GI50 in [7] is 1.21 µM; in [8], 0.99 µM; in experiment [9] it was 0.371 µM; in [10] it was 0.964 µM. The TGI in [1] turned out to be 1.54 µM; in [2], 2.56 µM; in [3], 2.2 µM; in [4], 11.9 µM; in [5] it was 1.91 µM; in experiment [6] it was 6.21 µM. In addition, the TGI in [7] stood at 2.83 µM; in experiment [8], 3.69 µM; in experiment [10], 2.07 µM.

For the compound `CCOC(=O)c1ccc(NC(=O)SCCC(=O)O)cc1`, the TGI in experiment [1], in experiment [2], in experiment [3], in [4], in experiment [5] and in experiment [6] was above 100 µM in each case. Further, the TGI in [7] was above 100 µM; in experiment [8], 23.1 µM; in [9], above 100 µM; in [10], above 100 µM.

For `O=C(NCc1ccco1)c1ccc(NC2=C(Cl)C(=O)N(Cc3ccccc3)C2=O)cc1`, the GI50 in experiment [1] is 29.6 µM; in experiment [2], 17.7 µM; in [3], 2.12 µM; in [4], 15.1 µM; in experiment [5] it was 16.7 µM; in [6] it was 20.8 µM. Moreover, the GI50 is 23.8 µM in [7], 41.9 µM in experiment [8], 2.21 µM in experiment [9] and 18.3 µM in experiment [10]. Besides, the TGI in [1] turned out to be 62.5 µM; in experiment [2], 74.4 µM; in [3], 35.2 µM; in experiment [4], 28.4 µM; in experiment [5] it was 31.3 µM; in experiment [6] it was 55.1 µM. The TGI in experiment [7] was 55.8 µM; in experiment [8] it was above 100 µM; in experiment [9], 7.14 µM; in experiment [10], 44.9 µM.

With `CCc1cc2c(cc1N1CCC(N3CCOCC3)CC1)C(C)(C)c1[nH]c3cc(C#N)ccc3c1C2=O`, the GI50 is 0.817 µM and 0.867 µM and 1.59 µM in experiment [1]; 2.02 µM and 1.35 µM and 1.14 µM in experiment [2]; 2.48 µM and 1.45 µM and 0.772 µM in [3]; 1.62 µM and 2.05 µM and 2.17 µM in experiment [4]; 1.68 µM and 1.65 µM in [5]; 2.56 µM and 2.95 µM and 1.61 µM in experiment [6]. Also, the GI50 was 2.62 µM and 2.86 µM and 5.46 µM in [7]; 1.03 µM and 1.25 µM and 1.38 µM in experiment [8]; < 0.0149 µM and 0.0165 µM and 0.0525 µM in [9]; 1.33 µM and 1.43 µM and 1.4 µM in experiment [10]. Further, the TGI in experiment [1] was 4.02 µM and 4.95 µM and > 10 µM; in [2], > 33.4 µM and 10.6 µM and 3.75 µM; in [3], 16.7 µM and 5.16 µM and 4 µM; in experiment [4], 8.88 µM and 11.9 µM and > 10 µM; in experiment [5], 4 µM and 3.42 µM and 3.91 µM; in experiment [6] it was 9.06 µM and 13.2 µM and 3.68 µM. In addition, the TGI in experiment [7] was 9.13 µM and 9.77 µM and > 10 µM; in experiment [8], 2.63 µM and 2.73 µM and 2.9 µM; in experiment [10], 2.76 µM and 3.28 µM and 2.96 µM.

`CCc1ccc2c(c1)N(CCO)C1=C(C(=O)OC1)C2c1cccc(Cl)c1` (stereo not drawn): the GI50 in experiment [1] is 0.36 µM; in [2], 0.605 µM; in [3] it was 3.75 µM; in experiment [4], 0.584 µM; in experiment [5], 0.364 µM; in [6], 0.382 µM. Moreover, the GI50 in [7] was 0.371 µM; in [8], 0.395 µM; in experiment [9], 0.445 µM; in [10], 0.499 µM. Moreover, the TGI is 11.4 µM in experiment [1]; 17.9 µM in [2]; 37.6 µM in [3]; 12.2 µM in experiment [4]; 1.68 µM in experiment [5]; 15.5 µM in [6]. Besides, the TGI was 16.2 µM in experiment [7], 14.6 µM in experiment [8], above 100 µM in experiment [9] and 15.5 µM in [10].

With `O=c1c2c3c(sc2nc(N/N=C/c2ccc(Br)cc2)n1Cc1ccccc1)CCCC3`, the GI50 in experiment [1] was above 100 µM; in experiment [2] it was 8.98 µM; in experiment [3] it was 58.7 µM; in experiment [4] it was 9.15 µM; in experiment [5], 32.5 µM; in experiment [6], 5.75 µM. Besides, the GI50 in experiment [7] was 6.08 µM; in experiment [8], 3.33 µM; in experiment [9] it was 4.98 µM; in [10], 7.83 µM. Moreover, the TGI in [1], in experiment [2], in experiment [3], in experiment [4], in experiment [5] and in [6] was above 100 µM each time. The TGI in experiment [7], in experiment [8], in experiment [9] and in experiment [10] was above 100 µM each time.

On to `CCCCCCCCCCCCOC1C(C(CC(=O)N2CCN(c3cccc(C(F)(F)F)c3)CC2)NS(=O)(=O)c2cc(Cl)cc(Cl)c2)OC2OC(C)(C)OC21` (stereo not drawn), for which the GI50 in [1], in [2], in experiment [3], in experiment [4], in experiment [5] and in [6] was above 100 µM throughout. The GI50 in [7], in [8], in experiment [9] and in experiment [10] was above 100 µM throughout. Further, the TGI in experiment [1], in [2], in experiment [3], in experiment [4], in experiment [5] and in experiment [6] was above 100 µM each time. The TGI in [7], in experiment [8], in [9] and in [10] was above 100 µM each time.
